Experimental data reported in PubChem BioAssay (NCI).
“And” between values parts separate entries of the source, which are not always exact repeats. Equal values may be shown once.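 Where inhibition never reached the appropriate level, the endpoint shown equals the highest concentration tested. Otherwise, values were interpolated linearly from a five-concentration, 48-hour dose response in 96-well plates. The concentration for 50% growth inhibition is given as GI50. The concentration for full growth arrest is given as TGI.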

Tests used:
Assay in all cases: DTP human tumour cell line panel, 48 h
NCI/ADR-RES ovarian = system: NCI/ADR-RES ovarian
NCI-H460 lung = system: NCI-H460 lung
CAKI-1 renal = system: CAKI-1 renal
EKVX NSCLC = system: EKVX NSCLC
SK-MEL-5 melanoma = system: SK-MEL-5 melanoma
SN12C renal = system: SN12C renal
SF-539 CNS = system: SF-539 CNS
U251 CNS = system: U251 CNS
T-47D breast = system: T-47D breast
OVCAR-4 ovarian = system: OVCAR-4 ovarian

| Compound | TGI (NCI/ADR-RES ovarian) [µM] | TGI (NCI-H460 lung) [µM] | TGI (CAKI-1 renal) [µM] | TGI (EKVX NSCLC) [µM] | TGI (SK-MEL-5 melanoma) [µM] | TGI (SN12C renal) [µM] | TGI (SF-539 CNS) [µM] | TGI (U251 CNS) [µM] | TGI (T-47D breast) [µM] | TGI (OVCAR-4 ovarian) | GI50 (NCI/ADR-RES ovarian) [µM] | GI50 (NCI-H460 lung) [µM] | GI50 (CAKI-1 renal) [µM] | GI50 (EKVX NSCLC) [µM] | GI50 (SK-MEL-5 melanoma) [µM] | GI50 (SN12C renal) [µM] | GI50 (OVCAR-4 ovarian) [µM] | GI50 (SF-539 CNS) [µM] | GI50 (U251 CNS) [µM] | GI50 (T-47D breast) [µM] |
| --- | --- | --- | --- | --- | --- | --- | --- | --- | --- | --- | --- | --- | --- | --- | --- | --- | --- | --- | --- | --- |
| COc1ccc(/C(Cl)=C(\C=O)c2ccc([N+](=O)[O-])cc2)cc1OC | 53.3 | 34 | 26.4 | > 59.7 | 23 | 22.1 | 30.8 | 20.2 | > 100 |  |  |  |  |  |  |  |  |  |  |  |
| O=C(O)C1C(C(=O)Nc2ccc3c(c2)Cc2ccccc2-3)C2(Cl)C(Cl)=C(Cl)C1(Cl)C2(Cl)Cl (stereo unspecified) | > 100 |  | > 100 | 97.6 | 27.5 | > 100 | 28.9 | 29.7 | > 100 | > 100 µM |  |  |  |  |  |  |  |  |  |  |
| CCCCCC(O)C1C(=O)OC(C)C(O)/C=C/C=C/C=C/C=C\C=C(\C)C(O)CC(O)CC(O)CC(O)CC(O)CC(O)CC1O (stereo unspecified) | > 100 | > 100 | > 100 | > 100 | > 100 | > 100 | > 100 | > 100 | > 100 | 26.3 µM and > 100 µM | > 100 | > 100 | > 100 | > 100 | > 100 | > 100 | > 100 | > 100 | > 100 | > 100 |
| Cc1ccc(C2NC(=S)NC3=C2CCOc2c3ccc3ccccc23)cc1 (stereo unspecified) | > 100 | > 100 | 11.7 |  |  | > 100 | > 100 | > 100 | > 100 | > 100 µM | 96.5 | 64.8 | 3.07 |  |  | > 100 | 29.4 | > 100 | > 100 | 35.7 |
| ClC1=C(Cl)C(Cl)=C(Cl)C1=C/C=C/c1ccccc1 |  | 2.3 | 0.561 | 1.23 | 0.563 | 2.15 | 0.699 | 1.37 | 0.631 | 19.8 µM | 0.393 | 0.326 | 0.198 | 0.215 | 0.196 | 0.407 | 0.337 | 0.206 | 0.346 | 0.153 |
| CCN(CC)c1cc(/C=C/c2ccc(OC)c(OC)c2)nc2cc(F)c(F)cc12 | > 100 | > 100 | > 100 |  | > 100 | > 100 | 92.9 | 4.98 | 18.4 | > 100 µM | 7.52 | 67.8 | 19 |  | 6.33 | 10.7 | 27 | 10.4 | 2.18 | 3.38 |
| N#Cc1c(-c2ccc(Cl)cc2)n(O)c2ccccc12 | 4.2 | > 100 | 5.2 | 15.7 | 2.06 | > 100 | 9.83 | 7.06 | 11.1 | > 100 µM | 1.43 | 2.82 | 1.95 | 3.11 | 0.557 | 3.07 | 3.01 | 2.58 | 1.9 | 2.88 |
| COc1ccc(Nn2c(SCC(=O)Nc3nc(-c4ccc(Cl)cc4)cs3)nc(C)c2C)cc1 | > 100 | 10.6 | > 100 | > 100 | 3.35 | 7.52 | > 100 | > 100 | 8.04 | > 100 µM | 2.89 | 2.69 | 2.16 | 1.92 | 1.41 | 2.3 | 4.02 | 4.15 | 4.03 | 1.23 |
| NC(=O)C1=NNc2ccccc2C(=O)N1c1ccccc1 | > 100 | > 100 | > 100 | > 100 | > 100 | > 100 | > 100 | > 100 | > 100 | > 100 µM |  |  |  |  |  |  |  |  |  |  |
| CCCCCCCC/C=C/CCCCCCCCC1=NCCN1CCO | 38.4 | 3.32 | 14.8 |  | 19.9 | 15.9 | 3.02 | 3.67 | 9.96 | 30.7 µM | 8.44 | 1.81 | 3.61 |  | 5.84 | 4.19 | 7 | 1.64 | 1.78 | 2.96 |
| COc1ccc(NC(=O)n2nc(N)c3ccccc32)cc1OC | > 100 | > 100 | > 100 | > 100 | > 100 | > 100 | > 100 | > 100 | > 100 | > 100 µM | 37.6 | 34.5 | > 100 | 54.1 | 27.9 | > 100 | 63.2 | 95.9 | 61.7 | 33 |
| CCC(C)n1cc(C)c2c(C(=O)NCc3c(C)cc(C)[nH]c3=O)cc(Br)cc21 (stereo unspecified) | > 100 | > 100 | > 100 |  | 29.1 | > 100 | > 100 | > 100 | 73.3 | > 100 µM | 33.8 | 40.3 | 94.1 |  | 13.2 | 55.6 | 37.2 | > 100 | 62.8 | 20 |
| NC(CSC(c1ccccc1)(c1ccccc1)c1ccc(Cl)cc1)C(=O)O (stereo unspecified) | 7.3 | 12.9 |  | > 33.9 | 14.1 | > 57.8 | 2.87 | 18.1 | 42 | > 100 µM | 0.712 | 0.342 | 0.37 | 0.342 | 0.0612 | 0.54 | 11.1 | 0.148 | 0.0978 | 0.376 |
